In US20090042993A1, “IDENTIFICATION OF NOVEL POST-TRANSLATIONAL PROTEIN MODIFICATIONS” (priority 2007, published 2009):

Tests used:
[1] = test system: ER membrane ATP transport; assay: ATP transport into intact ER vesicles; assay type: biochemical, Chinese Hamster; settings: vesicles from control and ceramide-treated cells, 5 and 10 μM solute
Text: Intact vesicles from the endoplasmic reticulum (ER) and the Golgi apparatus were purified on a 10-34% Iodixanol (OptiPrep; Axis-Shield, Norway) continuous gradient as described (Puglielli et al., 2001, Nat. Cell Biol. 3: 905-912). The complete migration of subcellular markers in a typical gradient is shown in Costantini et al., 2006, EMBO J. 25: 1997-2006; Puglielli et al., 2001, Nat. Cell Biol. 3: 905-912. Fractions enriched in ER and Golgi markers (also called ER or Golgi vesicles herein) were separated, pooled together, and resuspended in isotonic/cryogenic buffer (0.25 M sucrose and 10 mM Tris-HCl, pH 7.4) in the presence of protease inhibitors (Roche). Latency of ER and Golgi vesicles was determined with the glucose-6-phosphatase (Clairmont et al., 1992, J. Biol. Chem. 267: 3983-3900) and the sialyl-transferase (Puglielli and Hirschberg, 1999, J. Biol. Chem. 274: 35596-35600) methods, respectively. The purity of the preparation was further confirmed by assaying the above enzymatic activities, together with transport of CMP-sialic acid. […]
Briefly, assays were performed in 100 μl final volume (isotonic/cryogenic buffer) using 25 to 50 μg of ER/Golgi vesicles protein. […] Pellets were then dissolved in 0.6 mL of NaOH 1 N; after neutralization with 0.2 mL of 4N HCl, samples were counted by scintillation spectrometry. […]

BACE1 = assay: Pulse-chase and cell-surface biotinylation of newly-synthesized BACE1; assay type: cell-based, human; settings: BACE1WT expressing cells, 1.5 hours after the pulse
Procedure: Confluent cells were starved for 1 hr in Met/Cys free medium, labeled with 100 μCi [^35S]-Met/Cys (Trans35S-Label, >1000 Ci/mmol; Pierce) in starvation medium/dish and chased for 8, 16, and 24 hours with DMEM supplemented with 5 mM cold Met/Cys. Cell extracts were pre-cleared with BioMag Protein A (Polysciences, Inc.). Beads were used at the concentration of 15 μl of the slurry per sample and separated with a magnetic holder. BACE1 was then immunoprecipitated with anti-BACE1 antibodies and recovered with BioMag Protein A as above. The immunoprecipitate-bead complexes were washed 3 times and boiled in sample buffer. Beads were then separated and the samples were analyzed by reducing SDS-PAGE (on a 4-12% Bis-Tris NuPAGE system) and autoradiography.
For cell-surface biotinylation, cells were labeled as above and chased for 1.5 hours. […] Proteins were eluted and recovered as above; BACE1 was then immunopurified and analyzed by reducing SDS-PAGE and autoradiography.
FIG. 3 illustrates how transient lysine acetylation controls both translocation along the secretory pathway and molecular stability of the nascent BACE1 protein. […] Immunoprecipitates were analyzed by SDS-PAGE and autoradiography. […] BACE1 was then immunoprecipitated as above and analyzed by reducing SDS-PAGE and autoradiography. Results are expressed as percentage of total newly-synthesized BACE1. […]

CCCCCCCCCCCCC/C=C/[C@@H](O)[C@H](CO)NC(=O)CCCCC [ceramide, C6-ceramide]
ATP transport into ER vesicles [1]: no apparent difference | translocation of newly-synthesized BACE1 to the cell surface (BACE1): increasing the translocation of newly-synthesized BACE1 to the cell surface to levels almost similar to BACE1Gln
